# Reference: ChEMBL document CHEMBL1153048, “Novel and potent inhibitors of stearoyl-CoA desaturase-1. Part I: Discovery of 3-(2-hydroxyethoxy)-4-methoxy-N-[5-(3-trifluoromethylbenzyl)thiazol-2-yl]benzamide” (Bioorg Med Chem Lett, 2009)
# Experiments:
# [1] = target: T1, Stearoyl-CoA desaturase (Homo sapiens, UniProt O00767); test: Inhibition of SCD1 in human microsomes assessed as conversion of [14C]stearate to [14C]oleate after 60 mins; parameters: species or system Microsome
# T1 sequence (O00767 whole entry): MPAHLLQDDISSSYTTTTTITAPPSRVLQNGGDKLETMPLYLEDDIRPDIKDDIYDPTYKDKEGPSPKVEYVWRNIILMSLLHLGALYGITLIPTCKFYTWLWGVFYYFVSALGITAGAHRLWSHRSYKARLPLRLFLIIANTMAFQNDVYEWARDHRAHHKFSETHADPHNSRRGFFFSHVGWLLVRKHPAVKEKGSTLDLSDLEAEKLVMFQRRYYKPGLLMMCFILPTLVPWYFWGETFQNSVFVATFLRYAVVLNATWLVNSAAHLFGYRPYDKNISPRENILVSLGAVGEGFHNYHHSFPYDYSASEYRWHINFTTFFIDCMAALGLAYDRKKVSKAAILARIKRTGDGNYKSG
# [2] = target: T1, Stearoyl-CoA desaturase; test: Inhibition of human SCD1 expressed in HEK293A cells assessed as conversion of [14C]stearate to [14C]oleate; assay type: cell-based, HEK293-A
# [3] = target: T2, Acyl-CoA desaturase 1 (Mus musculus, UniProt P13516); test: Inhibition of SCD1 in mouse microsomes assessed as conversion of [14C]stearate to [14C]oleate after 60 mins; parameters: species or system Microsome
# T2 sequence (P13516 whole entry): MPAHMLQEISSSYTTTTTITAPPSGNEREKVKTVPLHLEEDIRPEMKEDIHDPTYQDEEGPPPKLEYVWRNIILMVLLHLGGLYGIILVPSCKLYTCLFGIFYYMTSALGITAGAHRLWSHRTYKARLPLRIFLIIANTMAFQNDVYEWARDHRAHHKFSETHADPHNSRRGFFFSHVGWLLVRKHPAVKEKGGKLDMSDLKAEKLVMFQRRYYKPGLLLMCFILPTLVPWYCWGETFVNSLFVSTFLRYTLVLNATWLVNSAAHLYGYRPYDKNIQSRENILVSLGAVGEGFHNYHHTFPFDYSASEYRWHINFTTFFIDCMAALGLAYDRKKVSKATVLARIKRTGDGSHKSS
# [4] = Half life in C57BL/6J mouse at 20 mg/kg, po measured up to 8 hrs; assay type: ADME, organism-based; parameters: time < 8 hr, dose 20 mg/kg, route oral; settings: in vivo
# [5] = tested on: Mus musculus; test: Inhibition of SCD1 in db/db mouse liver assessed as conversion of [14C]stearate to [14C]oleate administered through oral gavage; assay type: functional; settings: read-out: ID50 (the source's name)
# [6] = AUC (0 to 8 hrs) in C57BL/6J mouse at 20 mg/kg, po measured up to 8 hrs; assay type: ADME, organism-based; parameters: time < 8 hr, dose 20 mg/kg, route oral; settings: plasma
# [7] = Tmax in C57BL/6J mouse at 20 mg/kg, po measured up to 8 hrs; assay type: ADME, organism-based; parameters: dose 20 mg/kg, route oral; settings: in vivo
# [8] = Cmax in C57BL/6J mouse at 20 mg/kg, po measured up to 8 hrs; assay type: ADME, organism-based; parameters: dose 20 mg/kg, route oral; settings: in vivo
# [9] = Oral bioavailability in C57BL/6J mouse at 20 mg/kg measured up to 8 hrs; assay type: ADME, organism-based; settings: in vivo
# [10] = target: T3, Acyl-CoA 6-desaturase (Homo sapiens) (UniProt O95864); test: Inhibition of delta-6 desaturase in human microsomes assessed as conversion of [14C]linolenic acid to [14C]stearidonic acid at 10 uM; settings: Microsome
# T3 sequence (whole entry): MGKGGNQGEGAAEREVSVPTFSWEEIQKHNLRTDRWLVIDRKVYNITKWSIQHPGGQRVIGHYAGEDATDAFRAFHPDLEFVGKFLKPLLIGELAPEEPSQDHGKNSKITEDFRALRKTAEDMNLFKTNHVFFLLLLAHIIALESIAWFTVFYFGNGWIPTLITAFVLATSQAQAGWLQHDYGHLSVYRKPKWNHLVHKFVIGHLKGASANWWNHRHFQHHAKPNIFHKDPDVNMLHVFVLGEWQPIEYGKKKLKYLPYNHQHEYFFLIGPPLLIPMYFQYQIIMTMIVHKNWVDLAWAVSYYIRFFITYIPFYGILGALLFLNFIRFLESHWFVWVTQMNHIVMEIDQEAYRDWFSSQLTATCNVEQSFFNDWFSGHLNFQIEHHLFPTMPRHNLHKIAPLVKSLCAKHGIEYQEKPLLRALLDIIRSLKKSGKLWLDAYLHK
# [11] = Half life in C57BL/6J mouse at 5 mg/kg; assay type: ADME, organism-based; parameters: dose 5 mg/kg; settings: in vivo
# [12] = AUC (0 to 8 hrs) in C57BL/6J mouse at 5 mg/kg, iv measured up to 8 hrs; assay type: ADME, organism-based; parameters: time < 8 hr, dose 5 mg/kg, route intravenous; settings: plasma
# [13] = tested on: Mus musculus; test: AUC in C57BL/6J mouse at 5 mg/kg, iv measured up to 8 hrs; settings: in vivo
# [14] = Volume of distribution in C57BL/6J mouse at 5 mg/kg, iv measured up to 8 hrs; assay type: ADME, organism-based; parameters: dose 5 mg/kg, route intravenous; settings: in vivo
# [15] = Clearance in C57BL/6J mouse at 5 mg/kg, iv measured up to 8 hrs; assay type: ADME, organism-based; parameters: dose 5 mg/kg, route intravenous; settings: in vivo
SMILES,IC50 [1] [nM],IC50 [2] [nM],IC50 [3] [nM],also measured
COc1ccc(C(=O)Nc2ncc(Cc3cccc(C(F)(F)F)c3)s2)cc1OCC(C)O (stereo not drawn),2160,,2170,
O=C(Nc1ncc(Cc2cccc(C(F)(F)F)c2)s1)c1ccc2ccccc2c1,,,> 10000,
COc1ccc(C(=O)Nc2ncc(Cc3cccc(C(F)(F)F)c3)s2)cc1OCC(C)(C)O,,,> 10000,
COc1ccc(C(=O)Nc2ncc(Cc3cccc(C(F)(F)F)c3)s2)cc1OCC(O)CO (stereo not drawn),> 10000,,,
COc1cc(C(=O)Nc2ncc(Cc3cccc(C(F)(F)F)c3)s2)ccc1OCC(=O)O,4380,,,inhibition [10]: < 5%
COc1ccc(C(=O)Nc2ncc(Cc3cccc(C(F)(F)F)c3)s2)cc1OCCO,,,,half-life [11]: 0.9 h; ED50 [5]: 2 mg/kg; AUC(0-t) at 8 h [12]: 17000 ng·h/mL; AUC [13]: 4700 ng·h/mL; inhibition [10]: 15%; Vd [14]: 0.42 L/kg
COc1cc(C(=O)Nc2ncc(Cc3cccc(C(F)(F)F)c3)s2)ccc1OCCN1CCOCC1,1400,,528,inhibition [10]: < 5%
COc1ccc(C(=O)Nc2ncc(Cc3cccc(C(C)(C)C)c3)s2)cc1OCCO,,,1310,
Cc1ccc(C(=O)Nc2ncc(Cc3cccc(C(F)(F)F)c3)s2)cc1C,,,8220,
COc1ccc(C(=O)Nc2ncc(Cc3cccc(C(F)(F)F)c3)s2)cc1OCC(=O)O,,,> 10000,
COc1ccc(C(=O)Nc2ncc(Cc3cccc(C(F)(F)F)c3)s2)cc1OCCCO,> 10000,,,
COc1ccc(C(=O)Nc2ncc(Cc3cccc(C(F)(F)F)c3)s2)cc1,1220,,,

# Further compounds by falling IC50 [1], results first:
IC50 [1] [nM],IC50 [2] [nM],IC50 [3] [nM],SMILES,also measured
915,,193,COc1cccc(C(=O)Nc2ncc(Cc3cccc(C(F)(F)F)c3)s2)c1,inhibition [10]: 53%
145,,76,COc1ccc(C(=O)Nc2ncc(Cc3cccc(C(F)(F)F)c3)s2)cc1OC,inhibition [10]: < 5%
125,429,9,COc1ccc(C(=O)Nc2ncc(Cc3cc(Cl)ccc3Cl)s2)cc1OCCO,
82,639,22,COc1ccc(C(=O)Nc2ncc(Cc3ccc(C)c(F)c3)s2)cc1OCCO,
11,34,2,COc1ccc(C(=O)Nc2ncc(Cc3cccc(F)c3)s2)cc1OCCO,
10,,3,COc1cc(C(=O)Nc2ncc(Cc3cccc(C(F)(F)F)c3)s2)ccc1OCCO,half-life [11]: 1.4 h; half-life [4]: 1.3 h; clearance [15]: 3.4 mL/min/kg; AUC(0-t) at 8 h [12]: 24000 ng·h/mL; AUC(0-t) at 8 h [6]: 150 ng·h/mL; Tmax [7]: 0.5 h; Cmax [8]: 70 ng/mL; inhibition [10]: 16%; bioavailability [9]: 0.2%; Vd [14]: 0.42 L/kg
9,,5,COc1ccc2cc(C(=O)Nc3ncc(Cc4cccc(C(F)(F)F)c4)s3)ccc2c1,inhibition [10]: < 5%
9,34,2,COc1ccc(C(=O)Nc2ncc(Cc3ccc(F)c(F)c3)s2)cc1OCCO,
4,9,1,COc1ccc(C(=O)Nc2ncc(Cc3cccc(Cl)c3)s2)cc1OCCO,AUC at 8 h [4]: 10000 ng·h/mL; ED50 [5]: 1 mg/kg; Tmax [6]: 2 h; half-life [7]: 5.4 h; Cmax [8]: 1800 ng/mL; bioavailability [9]: 12%
4,59,3,COc1ccc(C(=O)Nc2ncc(Cc3cccc(OC(F)(F)F)c3)s2)cc1OCCO,AUC at 8 h [4]: 4900 ng·h/mL; ED50 [5]: 8 mg/kg; Tmax [6]: 1.3 h; half-life [7]: 1.5 h; Cmax [8]: 1200 ng/mL; bioavailability [9]: 8%
3,,2,COc1ccc(/C=C/C(=O)Nc2ncc(Cc3cccc(C(F)(F)F)c3)s2)cc1,half-life [11]: 0.4 h; clearance [15]: 32 mL/min/kg; AUC(0-t) at 8 h [12]: 2700 ng·h/mL; inhibition [10]: 21%; Vd [14]: 0.3 L/kg
2.9,116,0.1,COc1ccc(C(=O)Nc2ncc(Cc3cc(F)cc(F)c3)s2)cc1OCCO,
2,17,1,COc1ccc(C(=O)Nc2ncc(Cc3ccc(F)c(Cl)c3)s2)cc1OCCO,AUC at 8 h [4]: 14000 ng·h/mL; ED50 [5]: 2 mg/kg; Tmax [6]: 1 h; half-life [7]: 2.1 h; Cmax [8]: 3600 ng/mL; bioavailability [9]: 38%
1,13,0.8,COc1ccc(C(=O)Nc2ncc(Cc3ccc(Cl)c(Cl)c3)s2)cc1OCCO,
1,13,0.7,COc1ccc(C(=O)Nc2ncc(Cc3cc(Cl)cc(Cl)c3)s2)cc1OCCO,
0.6,8,0.2,COc1ccc(C(=O)Nc2ncc(Cc3ccc(F)c(C(F)(F)F)c3)s2)cc1OCCO,AUC at 8 h [4]: 2000 ng·h/mL; ED50 [5]: 5 mg/kg; Tmax [6]: 1.3 h; half-life [7]: 1.3 h; Cmax [8]: 550 ng/mL; bioavailability [9]: 3%
0.2,26,,COc1ccc(C(=O)Nc2ncc(Cc3cc(C(F)(F)F)cc(C(F)(F)F)c3)s2)cc1OCCO,
